In the METLIN SMRT retention time set (Domingo-Almenara et al. 2019):

Test: gradient 5% acetonitrile 3 min, to 50% in 2 min, to 85% in 15 min, held 3 min, 100 µL/min
Conditions: column: Zorbax Extend-C18 2.1 x 50 mm; eluents: water / acetonitrile, 0.1% formic acid
Method in brief: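 In both positive and negative ionization mode, a quadrupole time-of-flight mass spectrometer coupled to HPLC analyzed pure standards run in mixtures of ~100 molecules. The Zorbax Extend-C18 column (2.1 × 50 mm, 1.8 μm) was operated at 100 μL/min with water and acetonitrile, each containing 0.1% formic acid. The dead volume was 40 μL and the dwell volume 900 μL. Retention time came from adduct peaks that were computationally picked and individually inspected by hand.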

| Structure (SMILES) | RP-LC retention time |
| --- | --- |
| CC(C)(C)c1ccc2c(c1)OCC(=O)N2Cc1nc(-c2ccc3c(c2)OCO3)no1 | 1200 s |
| CNC(=O)Nc1cc(C)n(Cc2ccccc2)n1 | 738 s |
| C=CCNC(=O)c1cn(-c2cc(-c3nc(C(C)(C)C)no3)ccn2)cn1 | 879 s |
| CSc1ccc(CCNC(=O)C2CCCN(C(=O)c3cc(C)cc(C)c3)C2)cc1 (configuration not stated) | 936 s |
| Cc1cc(N2CCOCC2)nc(N2CCN(C(=O)c3ccc(Br)cc3)CC2)n1 | 660 s |
| COC(=O)c1c(NCCc2ccccc2)c2cc(F)ccc2[nH]c1=O | 791 s |
| O=c1c2oc3ccccc3c2ncn1Cc1nc(-c2ccc3c(c2)OCO3)no1 | 909 s |
| CCc1nc2cc(N3CCC(C(=O)NC(C)C)CC3)cnc2nc1CC | 704 s |
| CCOc1ccc(-c2noc(Cn3c(=O)n(CC(C)C)c(=O)c4ccccc43)n2)cc1OC | 1270 s |
| COc1ccc(-c2ncc3c(n2)CCN(C(=O)c2cccc(Cl)c2)C3)cc1 | 975 s |
| Cc1noc(C)c1CN1CCN(C(=O)c2cc(F)cc(F)c2)CC1 | 563 s |
| CCOc1ccccc1NC(=O)Cn1nc(N2CCC(C)CC2)c2ccccc2c1=O | 1290 s |
| Cc1ccc(Nc2c(-c3cccc([N+](=O)[O-])c3)nc3cc(C)ccn23)cc1 | 794 s |
| Clc1ccc(C(OCCN2CCCCC2)c2ccccc2)cc1 (configuration not stated) | 850 s |
| COc1ccc(/C=C/c2nn3c(-c4cccnc4)nnc3s2)cc1 | 860 s |
| CCCCOc1ccc(CNC(=O)c2ccc3c(c2)N(C)C(=O)C2CCCCN32)cc1 (configuration not stated) | 843 s |
| CC(=O)c1ccc(NC(=O)c2cnc(-c3ccc(C(F)(F)F)cc3)nc2C)cc1 | 1030 s |
| Cc1cc(N2CCN(C(=O)c3ccc(Br)o3)CC2)nc(N2CCOCC2)n1 | 599 s |
| O=C(c1ccncc1)N1CCC(n2nc(-c3ccsc3)ccc2=O)CC1 | 624 s |
| O=C(CCS(=O)(=O)c1ccccc1)Nc1nc(-c2cc(Cl)sc2Cl)cs1 | 1060 s |

| Structure (SMILES) | RP-LC retention time |
| --- | --- |
| CSc1cccc(NC(=O)Cn2cnc3c(sc4nc(-c5ccccc5)ccc43)c2=O)c1 | 1040 s |
| O=C(Nc1ccc2c(c1)OCO2)N(Cc1ccccn1)Cc1ccco1 | 628 s |
| Cc1cc(-c2nn3c(-c4cccc(F)c4)nnc3s2)c2ccccc2n1 | 887 s |
| Cc1ccccc1C(=O)N1C(C(=O)NCC(C)C)COC12CCN(C(=O)C(C)(C)C)CC2 (configuration not stated) | 782 s |
| COc1ccc2c(ccn2CCNC(=O)C2CC(=O)N(c3n[nH]c4ccccc34)C2)c1 (configuration not stated) | 722 s |
| Cn1ncc2c(N3CCOCC3)nc(C(=O)NCCc3cccs3)nc21 | 710 s |
| CC1CCN(C(=O)c2cc(S(=O)(=O)N3CCC(C(=O)N4CCCCC4)CC3)cn2C)CC1 | 796 s |
| COC(=O)c1ccc(CSc2nnc(CNC(=O)c3cccc([N+](=O)[O-])c3C)o2)o1 | 732 s |
| O=C(Cc1cccc(F)c1)N1CCc2cc(-c3ccno3)ccc21 | 948 s |
| Cc1ccccc1CN1CCN(CC(=O)NCc2ccc3c(c2)OCO3)C(=O)C1=O | 715 s |
| O=C(NCc1cccs1)c1coc(NC(=O)c2ccco2)n1 | 632 s |
| CN(C)C(=O)Cn1c(C(F)(F)F)nc2cc3c(cc21)OCCO3 | 694 s |
| O=C(Nc1cc(F)cc(F)c1)N1CCCN(C2CCN(Cc3ccc(F)cc3)C2=O)CC1 (configuration not stated) | 688 s |
| CC(=O)N1CCc2nn(CC(=O)N3CCc4ccccc43)c(=O)cc2C1 | 639 s |
| CCN1c2ccc(F)cc2C(=O)NC12CCN(C(=O)c1ccc(OC)cc1)CC2 | 773 s |
| Cc1ccc(N2CC(C(=O)NC(C)C)CC2=O)cc1 (configuration not stated) | 712 s |
| Cc1ccccc1N1C[C@@]23C=C[C@@H](O2)[C@H](C(=O)OC(C)C)[C@@H]3C1=O | 785 s |
| CCc1nnc(-c2cn(CC(=O)NCc3cccc(Br)c3)c3ccccc23)o1 | 867 s |
| CN1C(=O)c2cc(S(=O)(=O)NCc3ccccc3F)ccc2Oc2cccnc21 | 871 s |
| CCCCn1c(N)c(C(=O)OCC)c2nc3ccccc3nc21 | 613 s |

| Structure (SMILES) | RP-LC retention time |
| --- | --- |
| Cc1cc(-c2nnc(C3CC3)o2)c(C)n1CC(=O)NCc1ccc(F)cc1F | 811 s |
| CC(C)NC(=O)C1CCC(=O)N1C1CCN(C(=O)C2CCC2)CC1 (configuration not stated) | 584 s |
| CC1CCN(c2cc(-n3cnc(C(=O)N4CCC(C(N)=O)CC4)c3)ncn2)CC1 | 669 s |
| CCOc1ccc(CNC(=O)C2CCCN(C(=O)c3[nH]c(C)c(C(=O)OC(C)C)c3C)C2)cc1 (configuration not stated) | 877 s |
| CCOc1ccc2ncc(C#N)c(NCc3ccccc3)c2c1 | 634 s |
| COc1ccc(C2C(C(=O)NCCN3CCOCC3)c3cc(OC)c(OC)cc3C(=O)N2C)cc1 (configuration not stated) | 610 s |
| CCC(C)n1c(=O)c2ccccc2n(Cc2nc(-c3cccc(C(F)(F)F)c3)no2)c1=O (configuration not stated) | 1300 s |
| O=C(C1CCC1)N1CCCCCC1CN1CCOCC1 (configuration not stated) | 595 s |
| O=C(Nc1ccc2c(c1)OCO2)N1CCN(c2nc3ccccc3n(Cc3ccccc3)c2=O)CC1 | 1010 s |
| Fc1ccc(-c2nnc(Cc3nc(-c4ccccc4Cl)no3)o2)cc1 | 995 s |
| Cc1ccc(Cn2cc(-c3ccncc3)cc2C(=O)NCC(C)C)cc1 | 720 s |
| CCCCOc1ccc(-c2nc(C3CC(=O)N(c4ccc(OC)c(OC)c4)C3)no2)cc1 (configuration not stated) | 1120 s |
| CCOC(=O)C1=C(CN2CCN(c3ccccn3)CC2)NC(=O)NC1c1ccc(OC(C)C)cc1 (configuration not stated) | 668 s |
| Cc1cc2c(cc1S(=O)(=O)N1CCCC1C(=O)Nc1ccc(Cl)cc1F)OC(C)C(=O)N2 (configuration not stated) | 884 s |
| CCCOc1ccc(CNC(=O)c2cnc(OC)nc2)cc1 | 803 s |
| CCNC(=O)c1cc(N(C)C)nc2ccccc12 | 567 s |
| COc1ccc(-c2noc(-c3nn(-c4cccc(OC)c4)ccc3=O)n2)cc1 | 876 s |
| COc1ccc(NC(=O)N2CCN(CCn3c(C(C)C)nc4cccnc43)CC2)c(OC)c1 | 592 s |

Continued, values first:

| RP-LC retention time | Structure (SMILES) |
| --- | --- |
| 586 s | COc1cccc(C(=O)N2CCN(c3ccc(-c4ccccn4)nn3)CC2)c1OC |
| 1150 s | COc1ccc(-c2nnc(-c3cc(S(=O)(=O)N4CCCCCC4)ccc3Cl)o2)cc1 |
| 672 s | CCCNC(=O)C1CCN(c2ccc(SCC(=O)NCc3cccc(C(F)(F)F)c3)nn2)CC1 |
| 1060 s | COc1ccc(S(=O)(=O)N2CCCC(C(=O)Nc3cccc(SC)c3)C2)cc1Cl (configuration not stated) |
| 1020 s | Cc1ccc2c(c1)N(S(C)(=O)=O)CCC(C(=O)Nc1ccc(Br)cc1)O2 (configuration not stated) |
| 624 s | COC(=O)c1sccc1S(=O)(=O)N1CCN(c2ccccn2)CC1 |
| 843 s | O=C(Nc1cccc(Br)c1)c1cc(-c2ccccn2)n[nH]1 |
| 1120 s | O=C(C1CCCN(c2nccnc2Sc2ccccc2)C1)N1CCCCCC1 (configuration not stated) |
| 644 s | O=C(C1CCN(c2ccc(Sc3ccc(Cl)cc3)nn2)CC1)N1CCN(c2ccccn2)CC1 |
| 804 s | O=C(Nc1ccc2nccnc2c1)c1csc2c1CCCC2 |
| 771 s | O=C(C1CCOC1)N1CCCn2nc(-c3cccc(Cl)c3)cc2C1 (configuration not stated) |
| 1070 s | Cc1cc2nn(CC(=O)Nc3ccc(F)c(Cl)c3)c(=O)n2c(Nc2ccccc2)n1 |
| 1020 s | COc1ccccc1N1CCN(c2ncc(S(=O)(=O)c3ccc(C)c(C)c3)c(N)n2)CC1 |
| 776 s | O=C(NC1CCCC1)c1ccc2ccnc(N3CCN(c4ccccc4)CC3)c2c1 |
| 758 s | O=C(NCc1csc(-c2ccccc2)n1)C1CCN(S(=O)(=O)c2ccc3[nH]c(=O)oc3c2)CC1 |
| 788 s | COc1ccc(NC(=O)c2c(S(=O)(=O)Nc3ccc(Cl)cc3)n[nH]c2C)cc1OC |
| 638 s | CC1CCN(C(=O)c2ccc3ncnc(N4CCCCC4)c3c2)CC1 |
| 690 s | O=C(NCCc1c[nH]c2ccccc12)C1CCCN1c1nnc(N2CCCC2=O)s1 (configuration not stated) |
| 669 s | NC(=O)c1ccccc1NC(=O)C1CCN(C(=O)c2ccccc2F)CC1 |
| 1260 s | Cc1ccc(S(=O)(=O)N2CCC(c3noc(-c4ccccc4C)n3)CC2)cc1C |
| 824 s | COc1ccc(NC(=O)C2CCCN2S(=O)(=O)c2cc3c(cc2C)NC(=O)C(C)O3)cc1Cl (configuration not stated) |
| 972 s | CCS(=O)(=O)Nc1ccc(C2(C(=O)NCc3ccc(F)cc3F)CCCCC2)cc1 |
| 768 s | Cc1ccc(C(=O)Nc2ccc(S(N)(=O)=O)cc2)cc1Br |
| 695 s | NS(=O)(=O)c1ccc(CCNC(=O)C(=O)Nc2ccc(Cl)cn2)cc1 |
| 649 s | CCOc1ccc(NC(=O)COc2cc(C)nc(N3CCCC3)n2)cc1 |
| 1030 s | O=C(Nc1ccc(OC(F)(F)F)cc1)C(=O)Nc1cccc([N+](=O)[O-])c1 |
| 618 s | CC(C(=O)NCCCN1CCCCC1)n1c2ccccc2c2cnn(C)c(=O)c21 (configuration not stated) |
| 893 s | CCOc1cccc(CNC(=O)c2nnc(-c3ccc(S(=O)(=O)N(C)C)cc3)o2)c1 |
| 598 s | CS(=O)(=O)Nc1cccc(NC(=O)c2ccc(N3CCCC3)nn2)c1 |
